The experiment has as its system hESCs (H9) derived forebrain organoid. As to the kind of experiment: Dorsal-ventral patterning of forebrain organoids with a gradient of Shh agonist (immunostaining). The experiment is classed as cell-based, human. How it is done:
The cells were sub-passaged every 3 to 4 days by 80% to 90% confluence. Before cell culturing, the device 500 was incubated in 2% pluronic for one hour, rinsed with 1×DPBS three times, and dried out before adding the gelatin-transglutaminase mixture to layer 3. Before cell seeding, the medium and medium chambers were incubated at room temperature with E8 basal for up to 24 hrs. The gelatin in the microwells was aspirated after being soaked in the E8 basal before cell seeding.
Cells were seeded using E8 medium supplemented with 10 uM Rock inhibitor (Y27). 100, 000 cells suspended in 5 μl medium were then pipetted into each microwell. Then, the device 500 was centrifuged at 200 g for 2 mins. Then, another 1 ml and 500 μl of medium were added into the medium chamber and the morphogen chamber, respectively. The device 500 was placed into a 37 C.° incubator overnight to generate a cell aggregate. […] It was observed that the EBs were immobilized by growing them around the sutures. To grow EBs around the sutures, a high density of hESCs was seeded directly into the microwell. The size of the EB spheroid at day 8, around 500 μm, was consistent with the diameter of the EB at day 1. The size of EB spheroid could be grown by changing the E8 medium and adding 1% PS daily during continued culturing.
Essential 6 (E6) medium supplemented with 1% PS, 5 μM dorsomorphin (DM), and 10 μM SB-431542 for both medium and morphogen chambers for six days for dual SMAD inhibition. […] To generate a D-V patterned organoid, 5 μM of purmorphamine and 5 μM of IWP-2 were supplemented to the basal medium in the morphogen chamber for five days between day 14 to day 30. To generate cortical organoids, the basal medium was used for both the medium and the morphogen chamber. To generate subpallial organoids, purmorphamine and IWP-2 supplement medium were used for both chambers. The medium was changed daily until day 30.
The organoids were then rinsed with 1×DPBS two times for 10 mins, then fixed by incubating in 4% paraformaldehyde (Electron Microscopy Sciences) at 4 C.° overnight. […]

Results on 1 compound are retold here after US20240327800A1, “HIGH THROUGHPUT LOCALIZED PASSIVE DIFFUSION DEVICE FOR PATTERNING ORGANOIDS” (University of Massachusetts, priority 2023, published 2024).

Each structure is given as a SMILES string.

`c1ccc2c(Oc3nc(Nc4ccc(N5CCOCC5)cc4)c4ncn(C5CCCCC5)c4n3)cccc2c1` [purmorphamine]: the D-V patterning entry (Uniform Pur control: purmorphamine in both medium chamber and morphogen chamber (no gradient)) is given as “No D-V patterning was established”. For the same compound, the “NKX2.1 marker expression (ventral fate differentiation)” value (gradient group, 5 μM purmorphamine in morphogen chamber (with 5 μM IWP-2), five continuous days between day 14 and day 30, bottom half of organoid) is on record as “higher expression level of NKX2.1 makers was established at the bottom half of the organoid”. Besides, the “PAX6 expression (dorsal fate differentiation)” value (gradient group, 5 μM purmorphamine in morphogen chamber, five continuous days between day 14 and day 30, top half of organoid) is “dominant expression of PAX6 was observed”.
